Laboratory results published in a compilation of properties of binary mixtures (doi:10.1016/j.molliq.2017.12.017).

Test: xn = mol fraction of the nth substance listed
Conditions: 101 kPa

Compound: COCCO + CC[n+]1ccn(C)c1.O=S(=O)([O-])C(F)(F)F
- speed of sound (298.15 K, x2 = 0): 1342.3 m/s
- speed of sound (308.15 K, x2 = 0): 1308.2 m/s
- speed of sound (313.15 K, x2 = 0): 1290.8 m/s
- speed of sound (318.15 K, x2 = 0): 1273.6 m/s

Compound: CC[n+]1ccn(C)c1.O=S(=O)([O-])C(F)(F)F + COCCO
- speed of sound (298.15 K, x1 = 0.0531): 1359 m/s
- speed of sound (298.15 K, x1 = 0.1062): 1367 m/s
- speed of sound (298.15 K, x1 = 0.2935): 1392 m/s
- speed of sound (298.15 K, x1 = 0.3958): 1403.5 m/s
- speed of sound (298.15 K, x1 = 0.5036): 1413.9 m/s
- speed of sound (298.15 K, x1 = 0.5752): 1419.9 m/s
- speed of sound (298.15 K, x1 = 0.7142): 1429.2 m/s
- speed of sound (298.15 K, x1 = 0.8751): 1436.5 m/s
- speed of sound (298.15 K, x1 = 1): 1435.8 m/s
- speed of sound (303.15 K, x1 = 0.1062): 1351.6 m/s
- speed of sound (303.15 K, x1 = 0.1999): 1365.9 m/s
- speed of sound (303.15 K, x1 = 0.2935): 1378.7 m/s
- speed of sound (303.15 K, x1 = 0.3958): 1390.9 m/s
- speed of sound (303.15 K, x1 = 0.4452): 1396.2 m/s
- speed of sound (303.15 K, x1 = 0.5036): 1402 m/s
- speed of sound (303.15 K, x1 = 0.5752): 1408.2 m/s
- speed of sound (303.15 K, x1 = 0.6452): 1413.5 m/s
- speed of sound (303.15 K, x1 = 0.7142): 1417.9 m/s
- speed of sound (303.15 K, x1 = 0.8049): 1422.5 m/s
- speed of sound (303.15 K, x1 = 0.8751): 1425.1 m/s
- speed of sound (303.15 K, x1 = 0.9522): 1427 m/s
- speed of sound (308.15 K, x1 = 0.0531): 1327 m/s
- speed of sound (308.15 K, x1 = 0.1062): 1336.4 m/s
- speed of sound (308.15 K, x1 = 0.1999): 1351.6 m/s
- speed of sound (308.15 K, x1 = 0.3958): 1378.3 m/s
- speed of sound (308.15 K, x1 = 0.4452): 1383.9 m/s
- speed of sound (308.15 K, x1 = 0.5036): 1390 m/s
- speed of sound (308.15 K, x1 = 0.5752): 1396.6 m/s
- speed of sound (308.15 K, x1 = 0.6452): 1402.1 m/s
- speed of sound (308.15 K, x1 = 0.7142): 1406.7 m/s
- speed of sound (308.15 K, x1 = 0.8049): 1411.3 m/s
- speed of sound (308.15 K, x1 = 0.8751): 1413.9 m/s
- speed of sound (308.15 K, x1 = 0.9522): 1415.7 m/s
- speed of sound (308.15 K, x1 = 1): 1413.5 m/s
- speed of sound (313.15 K, x1 = 0.0531): 1310.8 m/s
- speed of sound (313.15 K, x1 = 0.1999): 1337.2 m/s
- speed of sound (313.15 K, x1 = 0.2935): 1351.8 m/s
- speed of sound (313.15 K, x1 = 0.3958): 1365.7 m/s
- speed of sound (313.15 K, x1 = 0.4452): 1371.6 m/s
- speed of sound (313.15 K, x1 = 0.5036): 1378 m/s
- speed of sound (313.15 K, x1 = 0.5752): 1385 m/s
- speed of sound (313.15 K, x1 = 0.6452): 1390.8 m/s
- speed of sound (313.15 K, x1 = 0.7142): 1395.5 m/s
- speed of sound (313.15 K, x1 = 0.8751): 1402.8 m/s
- speed of sound (313.15 K, x1 = 0.9522): 1404.5 m/s
- speed of sound (313.15 K, x1 = 1): 1402.4 m/s
- speed of sound (318.15 K, x1 = 0.0531): 1294.7 m/s
- speed of sound (318.15 K, x1 = 0.1062): 1305.4 m/s
- speed of sound (318.15 K, x1 = 0.2935): 1338.3 m/s
- speed of sound (318.15 K, x1 = 0.4452): 1359.3 m/s
- speed of sound (318.15 K, x1 = 0.5036): 1366.1 m/s
- speed of sound (318.15 K, x1 = 0.6452): 1379.4 m/s
- speed of sound (318.15 K, x1 = 0.7142): 1384.3 m/s
- speed of sound (318.15 K, x1 = 0.8049): 1389.2 m/s
- speed of sound (318.15 K, x1 = 0.8751): 1391.8 m/s
- speed of sound (318.15 K, x1 = 1): 1391.4 m/s
